According to patent US12133846B2, “Electrophilic androgen receptor (AR) antagonists for AR downregulation and ferroptosis induction in cancer cells” (priority 2019, dated 2024):
“And” between values parts separate entries of the source, which are not always exact repeats. Equal values may be shown once.

Experiments:
[1] = system: acetylation of α-tubulin and histone H3 (markers for HDAC6 and nuclear HDAC inhibition); assay: Western blotting of acetylation markers in VCaP cells; type: cell-based; conditions: 16 h, 2-63 and 12b 5 and 15 μM, SAHA 1 μM
Method: (§1) Western Blotting. […] Proteins in cell lysates (40 μg) were separated using electrophoresis on SDS-PAGE and transferred onto PVDF (polyvinylidenedifluoride) membranes. Membranes were blocked in 5% fat-free milk followed by incubation with primary antibodies overnight at 4° C., and the secondary horseradish peroxidase-conjugated anti-rabbit or anti-mouse antibodies. The blots were developed in the Enhanced Chemiluminescence mixture and detected by ImageQuant™ LAS 4000 imaging system (GE). Density of protein bonds were calculated and analyzed by using imageJ software downloaded from the National Institute of Health website.

[2] = system: AR transcriptional activity in MDA-kb2 cells; assay: cells; type: cell-based; conditions: DHT 1 nM
Method: MDA-kb2-cell-based ARE luciferase assays were performed to assess the influence of 2-63 and related compounds on AR transcriptional activity. […] Upon androgen stimulation and addition of a luciferase substrate, […], and the intensity is proportional to the extent of AR activation. An agent that either antagonistically competes with DHT for AR binding or reduces the expression of AR diminishes luciferase activity/fluorescence signal in this experimental system. […] 10b (an alcohol) and 11 b (an azide) are synthetic precursors of the ITC hybrid 12b.
Luciferase Assay. […] For all procedures, cells were incubated at CO2 free condition. Steady-Glo® (Promega Corp., Madison, WI) reagent was added to culture media with shaking for 10 min. Samples (100 μL) were transferred to an opaque 96-well white plate, and luminescence was measured using a luminometer.

VCaP cells = assay: MTT viability assay, VCaP cells; type: cell-based; conditions: Homo sapiens, VCaP; 72 h, full media, MTT; read-out: IC50, viability of VCaP cells
Source text: (§2) Biological Characterization. ITC-ARi hybrid drugs effectively reduce the viability of PCa cells. By using an MTT assay, it was first examined if the newly synthesized hybrid drugs affect the viability of CRPC-relevant PCa cells. PCa VCaP cells naturally express abundant wild type FL AR as well as AR splice variants (e.g., AR-V7). These cells were, therefore, used as one of the cell culture models in this work to investigate the drug-caused viability loss and AR downregulation.

22Rv1 cells = assay: MTT viability assay, 22Rv1 cells; type: cell-based; conditions: 5 μM, 72 h
Source text: as §2

LNCaP and RWPE-1 cells = assay: MTT viability, PCa LNCaP versus non-cancerous RWPE-1 cells; type: cell-based; conditions: 72 h, 2.5 to 10 μM
Source text: Because of the better selectivity and water solubility of 2-63 over 12b, 2-63 was used for further in vitro characterization and mechanistic studies.

C4-2 cells = assay: MTT viability assay, C4-2 cells; type: cell-based; conditions: 5 μM, 72 h
Source text: as §2

FL AR and AR-V7 [3] = target: T1, FL AR and AR-V7 (Homo sapiens, UniProt P10275); assay: Western blotting of FL AR and AR-V7 in VCaP cells; type: cell-based; conditions: full media, 16 h, 2-63, 12b 5 and 15 μM, Enz 10 μM, SAHA 1 μM
T1 construct: Whole cell lysates were subjected to Western blotting and probed with the indicated antibodies; endogenous in cells; host or cells: VCaP
T1 sequence (P10275 1-920): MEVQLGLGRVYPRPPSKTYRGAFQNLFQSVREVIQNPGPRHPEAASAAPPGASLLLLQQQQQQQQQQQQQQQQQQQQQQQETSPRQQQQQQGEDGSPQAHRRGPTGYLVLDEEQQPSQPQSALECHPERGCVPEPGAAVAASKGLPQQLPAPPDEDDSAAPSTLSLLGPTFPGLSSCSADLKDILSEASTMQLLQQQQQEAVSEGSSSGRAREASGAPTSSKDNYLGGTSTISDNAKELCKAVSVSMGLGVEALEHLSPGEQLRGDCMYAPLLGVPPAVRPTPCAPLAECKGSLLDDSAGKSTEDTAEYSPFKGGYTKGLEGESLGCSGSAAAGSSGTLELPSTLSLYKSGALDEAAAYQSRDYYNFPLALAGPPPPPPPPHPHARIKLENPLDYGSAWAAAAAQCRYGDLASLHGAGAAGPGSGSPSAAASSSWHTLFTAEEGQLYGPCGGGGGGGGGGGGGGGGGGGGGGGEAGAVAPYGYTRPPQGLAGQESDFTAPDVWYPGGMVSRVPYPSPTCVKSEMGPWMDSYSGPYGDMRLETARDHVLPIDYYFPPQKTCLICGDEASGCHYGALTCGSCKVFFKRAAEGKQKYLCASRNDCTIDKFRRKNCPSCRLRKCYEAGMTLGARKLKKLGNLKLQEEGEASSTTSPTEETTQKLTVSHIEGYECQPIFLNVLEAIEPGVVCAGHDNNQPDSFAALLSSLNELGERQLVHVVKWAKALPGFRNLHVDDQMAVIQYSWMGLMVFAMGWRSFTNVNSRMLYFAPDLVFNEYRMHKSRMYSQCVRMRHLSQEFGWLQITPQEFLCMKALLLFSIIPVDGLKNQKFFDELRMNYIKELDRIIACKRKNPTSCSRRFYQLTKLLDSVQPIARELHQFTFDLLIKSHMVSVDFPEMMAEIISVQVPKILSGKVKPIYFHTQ
Method: as §1

FL AR and AR-V7 [4] = target: T2, FL AR and AR-V7 (Homo sapiens, UniProt P10275); assay: Western blotting of FL AR and AR-V7 in VCaP cells; type: cell-based; conditions: full media, 16 h, 2-63, 12b 5 and 15 μM, Enz 10 μM
T2 construct: Whole cell lysates were subjected to Western blotting and probed with the indicated antibodies; endogenous in cells; host or cells: VCaP
T2 sequence (P10275 1-644 isoform P10275-3): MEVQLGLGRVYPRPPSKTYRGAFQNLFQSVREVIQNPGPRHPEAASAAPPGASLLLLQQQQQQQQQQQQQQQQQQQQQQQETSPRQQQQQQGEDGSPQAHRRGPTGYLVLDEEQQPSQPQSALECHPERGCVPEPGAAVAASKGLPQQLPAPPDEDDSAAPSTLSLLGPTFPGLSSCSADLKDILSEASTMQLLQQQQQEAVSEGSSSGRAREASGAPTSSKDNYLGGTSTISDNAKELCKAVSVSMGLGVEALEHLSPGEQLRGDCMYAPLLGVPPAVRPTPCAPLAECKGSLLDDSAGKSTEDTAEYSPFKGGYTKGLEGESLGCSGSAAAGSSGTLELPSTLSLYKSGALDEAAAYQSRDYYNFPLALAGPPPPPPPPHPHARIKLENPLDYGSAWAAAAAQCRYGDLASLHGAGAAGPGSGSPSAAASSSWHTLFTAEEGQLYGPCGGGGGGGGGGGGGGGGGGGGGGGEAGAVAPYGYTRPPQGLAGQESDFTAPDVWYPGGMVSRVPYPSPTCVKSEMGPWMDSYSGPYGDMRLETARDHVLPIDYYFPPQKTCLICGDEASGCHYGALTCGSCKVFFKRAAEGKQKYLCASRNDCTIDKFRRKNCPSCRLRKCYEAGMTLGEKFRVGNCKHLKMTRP
Method: as §1

Hsp90, Hsp70, HO-1 = assay: Western blotting of Hsp90, Hsp70 and HO-1 in VCaP cells; type: cell-based; conditions: 16 h, 5 and 15 μM
Method: as §1

RWPE-1 cells = assay: BSO pretreatment plus 2-63, MTT viability, RWPE-1 cells; conditions: BSO up to 100 μM
Method: Cell viability was then assessed using an MTT assay.
PCa cells (6×10^3 cells/well) were seeded into 96-well plates overnight and then treated with indicated compounds at indicated concentrations and time durations. The MTT (3-(4, 5-Dimethylthiazol-2-yl)-2,5-diphenyltetrazolium bromide) assay was performed according to the standard protocol. Briefly, MTT (0.5 mg/mL) was incubated with cells at 37° C. for 3 hours. Supernatant was removed, followed by the addition of dimethyl DMSO (100 μl). After incubation for 30 minutes at 37° C., absorbance was read at 570 nm on a microplate reader.

SMILES | histone H3 acetylation [1] | α-tubulin acetylation ([1]; SFN 15 μM) | AR inhibition at 1 μM relative to Enz, 10b and 11b ([2]; 1 μM) | suppression of DHT-stimulated luciferase activity ([2]; 1-5 μM) | AR inhibition at higher concentrations relative to comparators ([2]; 2.5 and 5 μM) | IC50 (VCaP cells) [µM] | relative potency in viability reduction, 22Rv1 cells (22Rv1 cells) | differential anti-proliferative effect, LNCaP vs RWPE-1 cells (LNCaP and RWPE-1 cells) | relative potency in viability reduction, C4-2 cells (C4-2 cells) | FL AR expression (FL AR and AR-V7 [3]) | AR-V7 expression (FL AR and AR-V7 [4]) | Hsp70 protein level (Hsp90, Hsp70, HO-1) | Hsp90 protein level (Hsp90, Hsp70, HO-1) | enhancement of the potency of 2-63 by BSO in RWPE-1 cells (RWPE-1 cells)
CC1(C)C(=O)N(c2ccc(C#N)c(C(F)(F)F)c2)C(=S)N1c1ccc(CCCCCCN=C=S)nc1 [12b, 4-(3-(6-(6-Isothiocyanatohexyl)pyridin-3-yl)-4,4-dimethyl-5-oxo-2-thioxoimidazolidin-1-yl)-2-(trifluoromethyl) benzonitrile] | did not show significant effects | did not show significant effects | less effective | decreased luciferase activity in a dose-dependent manner | similarly with these non-ITC-containing compounds | 3.89 | more effective than 12a and 12b>2-63>PEITC-NAC | almost equally suppressed | more effective than 12a and 12b>2-63>PEITC-NAC | seemed to be more effective | seemed to be more effective | significantly induced | did not change | –
CCCCS(=N)(=O)CCC(N)C(=O)O [BSO, L-buthionine sulfoximine, reference compound] | – | – | – | – | – | – | – | – | – | – | – | – | – | does not notably enhance
